biological target: Thymidylate synthase (Homo sapiens, UniProt P04818); experiment: Inhibition of thymidylate synthase
Sequence (P04818 whole entry): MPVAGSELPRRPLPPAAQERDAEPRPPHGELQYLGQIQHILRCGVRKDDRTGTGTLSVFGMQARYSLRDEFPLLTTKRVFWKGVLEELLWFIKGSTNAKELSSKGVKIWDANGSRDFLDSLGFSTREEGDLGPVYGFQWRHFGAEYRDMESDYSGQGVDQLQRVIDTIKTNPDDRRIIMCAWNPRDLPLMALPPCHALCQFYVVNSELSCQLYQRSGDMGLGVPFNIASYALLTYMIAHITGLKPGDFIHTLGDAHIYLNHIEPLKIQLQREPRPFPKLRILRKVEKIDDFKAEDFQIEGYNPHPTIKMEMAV

| SMILES | IC50 [nM] |
| --- | --- |
| CCN(Cc1ccc2nc(C)[nH]c(=O)c2c1)c1ccc(C(=O)N[C@@H](CCC(=O)O)C(=O)O)c([N+](=O)[O-])c1 | 145 |
| C#CCN(Cc1ccc2nc(C)[nH]c(=O)c2c1)c1ccc(C(=O)N[C@@H](CCC(=O)O)C(=O)O)c(C(F)(F)F)c1 | 479 |
| C#CCN(Cc1ccc2nc(C)[nH]c(=O)c2c1)c1ccc(C(=O)N[C@@H](CCC(=O)O)C(=O)O)c(N)c1 | 288 |
| Cc1nc2ccc(CN(CCN)c3ccc(C(=O)N[C@@H](CCC(=O)O)C(=O)O)c(F)c3)cc2c(=O)[nH]1 | 11700 |
| C#CCN(Cc1ccc2nc(N)[nH]c(=O)c2c1)c1ccc(C(=O)N[C@@H](CCC(=O)O)C(=O)O)c(F)c1 | 8.91 |
| Cc1nc2ccc(CN(CCF)c3ccc(C(=O)N[C@@H](CCC(=O)O)C(=O)O)c(F)c3)cc2c(=O)[nH]1 | 42.7 |
| Cc1nc2ccc(CNc3ccc(C(=O)N[C@@H](CCC(=O)O)C(=O)O)c(F)c3)cc2c(=O)[nH]1 | 3800 |
| Cc1nc2ccc(CN(CCO)c3ccc(C(=O)N[C@@H](CCC(=O)O)C(=O)O)cc3F)cc2c(=O)[nH]1 | 3550 |
| Cc1nc2ccc(CN(CCCO)c3ccc(C(=O)N[C@@H](CCC(=O)O)C(=O)O)cc3F)cc2c(=O)[nH]1 | 977 |
| Cc1nc2ccc(CN(CCCO)c3ccc(C(=O)N[C@@H](CCC(=O)O)C(=O)O)c(F)c3)cc2c(=O)[nH]1 | 589 |
| C#CCN(Cc1ccc2nc(OC)[nH]c(=O)c2c1)c1ccc(C(=O)N[C@@H](CCC(=O)O)C(=O)O)c(F)c1 | 36.3 |
| Cc1nc2ccc(CN(CCF)c3ccc(C(=O)N[C@@H](CCC(=O)O)C(=O)O)cc3F)cc2c(=O)[nH]1 | 1740 |
| C=CCN(Cc1ccc2nc(C)[nH]c(=O)c2c1)c1ccc(C(=O)N[C@@H](CCC(=O)O)C(=O)O)cc1F | 5130 |
| Cc1nc2ccc(CN(CCO)c3ccc(C(=O)N[C@@H](CCC(=O)O)C(=O)O)c(F)c3)cc2c(=O)[nH]1 | 77.6 |
| CCc1nc2ccc(CNc3ccc(C(=O)N[C@@H](CCC(=O)O)C(=O)O)cc3)cc2c(=O)[nH]1 | 20000 |
| Cc1nc2ccc(CN(CCF)c3cnc(C(=O)N[C@@H](CCC(=O)O)C(=O)O)s3)cc2c(=O)[nH]1 | 191 |
| Cc1nc2ccc(CN(CCO)c3cnc(C(=O)N[C@@H](CCC(=O)O)C(=O)O)s3)cc2c(=O)[nH]1 | 417 |
| C#CCN(Cc1ccc2nc(C)[nH]c(=O)c2c1)c1ccc(C(=O)N[C@@H](CCC(=O)O)C(=O)O)s1 | 437 |
| Cc1nc2ccc(CN(CCO)c3ccc(C(=O)N[C@@H](CCC(=O)O)C(=O)O)s3)cc2c(=O)[nH]1 | 1200 |
| Cc1nc2ccc(CN(CCCO)c3ccc(C(=O)N[C@@H](CCC(=O)O)C(=O)O)s3)cc2c(=O)[nH]1 | 3390 |
| Cc1nc2ccc(CN(CC#N)c3ccc(C(=O)N[C@@H](CCC(=O)O)C(=O)O)s3)cc2c(=O)[nH]1 | 3090 |
| C#CCN(Cc1ccc2nc(C)[nH]c(=O)c2c1)c1cnc(C(=O)N[C@@H](CCC(=O)O)C(=O)O)s1 | 229 |
| Cc1nc2ccc(CN(CCF)c3ccc(C(=O)N[C@@H](CCC(=O)O)C(=O)O)s3)cc2c(=O)[nH]1 | 550 |

| SMILES | IC50 [nM] |
| --- | --- |
| Cc1nc2ccc(CN(CCCO)c3cnc(C(=O)N[C@@H](CCC(=O)O)C(=O)O)s3)cc2c(=O)[nH]1 | 1740 |
| Cc1nc2ccc(CNc3cnc(C(=O)N[C@@H](CCC(=O)O)C(=O)O)s3)cc2c(=O)[nH]1 | 7080 |
| CCN(Cc1ccc2nc(C)[nH]c(=O)c2c1)c1ncc(C(=O)N[C@@H](CCC(=O)O)C(=O)O)s1 | 759 |
| CCN(Cc1ccc2nc(C)[nH]c(=O)c2c1)c1cnc(C(=O)N[C@@H](CCC(=O)O)C(=O)O)s1 | 229 |
| CCN(Cc1ccc2nc(C)[nH]c(=O)c2c1)c1nnc(C(=O)N[C@@H](CCC(=O)O)C(=O)O)s1 | 933 |
| CCCN(Cc1ccc2nc(C)[nH]c(=O)c2c1)c1ccc(C(=O)N[C@@H](CCC(=O)O)C(=O)O)s1 | 1860 |
| C=CCN(Cc1ccc2nc(C)[nH]c(=O)c2c1)c1ccc(C(=O)N[C@@H](CCC(=O)O)C(=O)O)s1 | 1660 |
| C=CCN(Cc1ccc2nc(C)[nH]c(=O)c2c1)c1cnc(C(=O)N[C@@H](CCC(=O)O)C(=O)O)s1 | 1070 |
| C#CCN(Cc1ccc2nc(C)[nH]c(=O)c2c1)c1ccc(C(=O)N[C@@H](CCC(=O)O)C(=O)O)c(F)c1 | 20 |
| C#CCN(Cc1ccc2nc(C)[nH]c(=O)c2c1)c1ccc(C(=O)N[C@@H](CCC(=O)O)C(=O)O)nc1 | 39.8 |
| Cc1nc2ccc(CN(CCBr)c3ccc(C(=O)N[C@@H](CCC(=O)O)C(=O)O)cc3)cc2c(=O)[nH]1 | 1290 |
| Cc1nc2ccc(CN(CC(N)=O)c3ccc(C(=O)N[C@@H](CCC(=O)O)C(=O)O)c(F)c3)cc2c(=O)[nH]1 | 1350 |
| C=CCN(Cc1ccc2nc(C)[nH]c(=O)c2c1)c1ccc(C(=O)N[C@@H](CCC(=O)O)C(=O)O)c(F)c1 | 75.9 |
| C#CCN(Cc1ccc2nc(C)[nH]c(=O)c2c1)c1ccc(C(=O)N[C@@H](CCC(=O)O)C(=O)O)c([N+](=O)[O-])c1 | 129 |
| C#CCN(Cc1ccc2nc(C)[nH]c(=O)c2c1)c1ccc(C(=O)N[C@@H](CCC(=O)O)C(=O)O)c(O)c1 | 89.1 |
| Cc1nc2ccc(CN(CC#N)c3ccc(C(=O)N[C@@H](CCC(=O)O)C(=O)O)c(F)c3)cc2c(=O)[nH]1 | 170 |
| C#CCN(Cc1ccc2nc(C)[nH]c(=O)c2c1)c1ccc(C(=O)N[C@@H](CCC(=O)O)C(=O)O)c(OC)c1 | 67.6 |
| C#CCN(Cc1ccc2nc(C)[nH]c(=O)c2c1)c1ccc(C(=O)N[C@@H](CCC(=O)O)C(=O)O)c(Cl)c1 | 74.1 |
| C=CCN(Cc1ccc2nc(C)[nH]c(=O)c2c1)c1ccc(C(=O)N[C@@H](CCC(=O)O)C(=O)O)nc1 | 759 |
| Cc1nc2ccc(CN(CCF)c3ccc(C(=O)N[C@@H](CCC(=O)O)C(=O)O)nc3)cc2c(=O)[nH]1 | 158 |
| C#CCN(Cc1ccc2nc[nH]c(=O)c2c1)c1ccc(C(=O)N[C@@H](CCC(=O)O)C(=O)O)c(F)c1 | 57.5 |
| Cc1nc2ccc(CNc3ccc(C(=O)N[C@@H](CCC(=O)O)C(=O)O)s3)cc2c(=O)[nH]1 | 24500 |

The remaining lines, values ahead:

| IC50 [nM] | SMILES |
| --- | --- |
| 309 | CCN(Cc1ccc2nc(C)[nH]c(=O)c2c1)c1ccc(C(=O)N[C@@H](CCC(=O)O)C(=O)O)c(N)c1 |
| 501 | Cc1nc2ccc(CN(CCO)c3ccc(C(=O)N[C@@H](CCC(=O)O)C(=O)O)cc3)cc2c(=O)[nH]1 |
| 25100 | CC(=O)CN(Cc1ccc2nc(C)[nH]c(=O)c2c1)c1ccc(C(=O)N[C@@H](CCC(=O)O)C(=O)O)cc1 |
| 9330 | Cc1nc2ccc(CNc3ccc(C(=O)N[C@@H](CCC(=O)O)C(=O)O)cc3F)cc2c(=O)[nH]1 |
| 2880 | CN(Cc1ccc2nc(CF)[nH]c(=O)c2c1)c1ccc(C(=O)N[C@@H](CCC(=O)O)C(=O)O)cc1 |
| 12900 | COCCCN(Cc1ccc2nc(C)[nH]c(=O)c2c1)c1ccc(C(=O)N[C@@H](CCC(=O)O)C(=O)O)cc1 |
| 537 | Cc1nc2ccc(CN(CCCO)c3ccc(C(=O)N[C@@H](CCC(=O)O)C(=O)O)cc3)cc2c(=O)[nH]1 |
| 240 | Cc1nc2ccc(CN(CCF)c3ccc(C(=O)N[C@@H](CCC(=O)O)C(=O)O)cc3)cc2c(=O)[nH]1 |
| 44.7 | CCN(Cc1ccc2nc(C)[nH]c(=O)c2c1)c1ccc(C(=O)N[C@@H](CCC(=O)O)C(=O)O)c(F)c1 |
| 316 | CCN(Cc1ccc2nc(C)[nH]c(=O)c2c1)c1ccc(C(=O)N[C@@H](CCC(=O)O)C(=O)O)c(C)c1 |
| 1780 | Cc1nc2ccc(CN(CCS)c3ccc(C(=O)N[C@@H](CCC(=O)O)C(=O)O)cc3)cc2c(=O)[nH]1 |
| 676 | CCN(Cc1ccc2nc(C)[nH]c(=O)c2c1)c1ccc(C(=O)N[C@@H](CCC(=O)O)C(=O)O)cc1F |
| 191 | CCN(Cc1ccc2nc(C)[nH]c(=O)c2c1)c1ccc(C(=O)N[C@@H](CCC(=O)O)C(=O)O)c(OC)c1 |
| 851 | Cc1nc2ccc(CN(C)c3ccc(C(=O)N[C@@H](CCC(=O)O)C(=O)O)c(N)c3)cc2c(=O)[nH]1 |
| 120 | CCN(Cc1ccc2nc(C)[nH]c(=O)c2c1)c1ccc(C(=O)N[C@@H](CCC(=O)O)C(=O)O)c(Cl)c1 |
| 575 | CCN(Cc1ccc2nc(C)[nH]c(=O)c2c1)c1ccc(C(=O)N[C@@H](CCC(=O)O)C(=O)O)s1 |

| IC50 [nM] | SMILES |
| --- | --- |
| 417 | Cc1nc2ccc(CN(C)c3cnc(C(=O)N[C@@H](CCC(=O)O)C(=O)O)s3)cc2c(=O)[nH]1 |
| 16200 | COCCN(Cc1ccc2nc(C)[nH]c(=O)c2c1)c1ccc(C(=O)N[C@@H](CCC(=O)O)C(=O)O)cc1 |
| 4270 | Cc1nc2ccc(CN(C)c3ccc(C(=O)N[C@@H](CCC(=O)O)C(=O)O)cn3)cc2c(=O)[nH]1 |
| 347 | Cc1nc2ccc(CN(C)c3ccc(C(=O)N[C@@H](CCC(=O)O)C(=O)O)nc3)cc2c(=O)[nH]1 |
| 1450 | C#CCN(Cc1ccc2nc(C)[nH]c(=O)c2c1)c1ccc(C(=O)N[C@@H](CCC(=O)O)C(=O)O)cc1F |
| 120 | Cc1nc2ccc(CN(C)c3ccc(C(=O)N[C@@H](CCC(=O)O)C(=O)O)c(F)c3)cc2c(=O)[nH]1 |
| 933 | Cc1nc2ccc(CN(C)c3ccc(C(=O)N[C@@H](CCC(=O)O)C(=O)O)c(C)c3)cc2c(=O)[nH]1 |
| 501 | C#CCN(Cc1ccc2nc(C)[nH]c(=O)c2c1)c1ccc(C(=O)N[C@@H](CCC(=O)O)C(=O)O)c(C)c1 |
| 479 | C=CCN(Cc1ccc2nc(C)[nH]c(=O)c2c1)c1ccc(C(=O)N[C@@H](CCC(=O)O)C(=O)O)cc1 |
| 2340 | Cc1nc2ccc(CN(C)c3cnc(C(=O)N[C@@H](CCC(=O)O)C(=O)O)nc3)cc2c(=O)[nH]1 |
| 302 | Cc1nc2ccc(CN(C)c3ccc(C(=O)N[C@@H](CCC(=O)O)C(=O)O)cc3)cc2c(=O)[nH]1 |
| 151 | CCN(Cc1ccc2nc(C)[nH]c(=O)c2c1)c1ccc(C(=O)N[C@@H](CCC(=O)O)C(=O)O)nc1 |
| 170 | CCN(Cc1ccc2nc(C)[nH]c(=O)c2c1)c1ccc(C(=O)N[C@@H](CCC(=O)O)C(=O)O)cc1 |
| 4470 | Cc1nc2ccc(CNc3ccc(C(=O)N[C@@H](CCC(=O)O)C(=O)O)cc3)cc2c(=O)[nH]1 |
| 1150 | Cc1nc2ccc(CN(C)c3ccc(C(=O)N[C@@H](CCC(=O)O)C(=O)O)cc3F)cc2c(=O)[nH]1 |

From ChEMBL document CHEMBL1157058, “3D-QSAR studies on quinazoline antifolate thymidylate synthase inhibitors by CoMFA and CoMSIA models” (Eur J Med Chem, 2010)
